Here are results for 1 molecule from ChEMBL document CHEMBL4251557 (Eur J Med Chem, 2017).

The target of the test is Neuraminidase (Influenza A virus (A/Puerto Rico/8/1934(H1N1)), UniProt P03468, H274Y). Set-up: species or system Influenza A virus (A/California/04/2009(H1N1)).

In general, IC50 refers to the midpoint of a concentration-inhibition curve. A higher IC50 goes with lower potency. `CCC(CC)O[C@@H]1C=C(C(=O)O)C[C@H](NC(C)=O)[C@H]1NC(C)=O` registered an IC50 of 1380 nM.
